The experiment deals with Complement factor D (Homo sapiens, UniProt P00746). Kind of experiment: Factor D Assay: Human Factor D (purified from human serum, Complement Technology, Inc.) at 80 nM final concentration is incubated with test compound at various concentrations for 5 min at room temperature in 50 mM Tris, 1M NaCl, pH 7.5. A synthetic substrate Z-L-Lys-SBz and DTNB (Ellman's reagent) are added to final concentrations of 100 μM each. Absorbance at 405 nm (A405) is recorded at 30 second intervals for 30 min using a microplate spectrophotometer. IC50 values are calculated by nonlinear regression of complement Factor D reaction rates as a function of test compound concentration.
Sequence of Complement factor D (P00746 whole entry): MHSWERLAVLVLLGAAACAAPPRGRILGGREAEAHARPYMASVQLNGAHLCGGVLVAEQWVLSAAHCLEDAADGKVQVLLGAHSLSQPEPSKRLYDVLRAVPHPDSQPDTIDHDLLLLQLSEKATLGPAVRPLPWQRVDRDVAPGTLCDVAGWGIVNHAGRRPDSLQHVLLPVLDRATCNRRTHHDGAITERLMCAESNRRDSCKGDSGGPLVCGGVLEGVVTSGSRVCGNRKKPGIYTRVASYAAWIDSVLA

Regarding `COCc1ncc(-c2cc3c(C(C)=O)nn(CC(=O)N4[C@H](C(=O)Nc5nc(Br)ccc5C)C[C@@]5(C)C[C@@H]45)c3cn2)cn1`, the IC50 was under 1000 nM.
With `CC(=O)c1nn(CC(=O)N2[C@H](C(=O)NCCc3ccccc3)C[C@@]3(C)C[C@@H]23)c2c(C)cc(-c3cnc(C)nc3)cc12`, the IC50 was under 1000 nM.
With `CC(=O)c1nn(CC(=O)N2[C@H](C(=O)Nc3nc(Br)ccc3F)C[C@@]3(C)C[C@@H]23)c2cnc(-c3cnc(C)nc3)cc12`, the IC50 was under 1000 nM.
With `CC(=O)c1nn(CC(=O)N2[C@H](C(=O)Nc3cccc(Br)n3)C[C@@]3(C)C[C@@H]23)c2ccc(-c3cnc(O)nc3)cc12`, the half-inhibitory concentration (IC50) is under 1000 nM.
Take `CC(=O)c1nn(CC(=O)N2[C@H](C(=O)Nc3cnc(C)c(Br)n3)C[C@@]3(C)C[C@@H]23)c2c(C)cc(-c3cnc(C)nc3)cc12`: the IC50 was under 1000 nM.
Take `CC(=O)c1nn(CC(=O)N2[C@H](C(=O)NCCCc3ccccc3)C[C@@]3(C)C[C@@H]23)c2c(C)cc(-c3cnc(C)nc3)cc12`: the IC50 is under 1000 nM.
The same measure for `CC(=O)c1nn(CC(=O)N2[C@H](C(=O)Nc3nc(Br)ccc3CN3CCC(S(C)(=O)=O)CC3)C[C@@]3(C)C[C@@H]23)c2c(C)cc(-c3cnc(C)nc3)cc12`: under 1000 nM.
For the molecule `C#CC(C)NC(=O)c1nn(CC(=O)N2[C@H](C(=O)Nc3nc(Br)ccc3C)C[C@@]3(C)C[C@@H]23)c2ccc(-c3cnc(C)nc3)cc12` (stereo partly specified), the IC50 is under 1000 nM.
The same measure for `CC(=O)c1nn(CC(=O)N2[C@H](C(=O)Nc3nc(Br)ccc3CN3CCn4c(nnc4C(F)(F)F)C3)C[C@@]3(C)C[C@@H]23)c2cnc(-c3cnc(C)nc3)cc12`: under 1000 nM; for `CC(=O)c1nn(CC(=O)N2[C@H](C(=O)Nc3nc(Br)ccc3C)C[C@@]3(/C=N/O)C[C@@H]23)c2cnc(-c3cnc(C)nc3)cc12`: under 1000 nM.
In the case of `CC(=O)c1nn(CC(=O)N2[C@H](C(=O)Nc3nc(Br)ccc3C)C[C@@]3(C)C[C@@H]23)c2c(C)cc(-c3cnc(C4(O)COC4)nc3)cc12` it was under 1000 nM.
As to `C=Cc1nn(CC(=O)N2[C@H](C(=O)Nc3nc(Br)ccc3C)C[C@@]3(C)C[C@@H]23)c2cnc(-c3cnc(C)nc3)cc12`, the IC50 is under 1000 nM.
The same measure for `CC(=O)c1nn(CC(=O)N2C[C@H](F)C[C@H]2C(=O)Nc2nc(Br)ccc2C)c2ccc(-c3cnc(OC4CS(=O)(=O)C4)nc3)cc12`: under 1000 nM; for `CC(=O)c1nn(CC(=O)N2[C@H](C(=O)Nc3cccc(-c4ccccc4Cl)c3F)C[C@@]3(C)C[C@@H]23)c2c(C)cc(-c3cnc(C)nc3)cc12`: under 1000 nM; for `CC(=O)c1nn(CC(=O)N2[C@H](C(=O)NCC3CC3)C[C@@]3(C)C[C@@H]23)c2c(C)cc(-c3cnc(C)nc3)cc12`: under 1000 nM.
With `CC(=O)c1nn(CC(=O)N2[C@H](C(=O)NCc3ccncc3)C[C@@]3(C)C[C@@H]23)c2c(C)cc(-c3cnc(C)nc3)cc12`, the IC50 is under 1000 nM.
As to `CC(=O)c1nn(CC(=O)N2[C@H](C(=O)Nc3nc(Br)ccc3C)C[C@@]3(CCCF)C[C@@H]23)c2cnc(-c3cnc(C)nc3)cc12`, the IC50 is under 1000 nM.
In the case of `CC(=O)c1nn(CC(=O)N2[C@H](C(=O)Nc3nc(Br)ccc3C)C[C@@]3(CC#N)C[C@@H]23)c2c(C)cc(-c3cnc(C)nc3)cc12` it was under 1000 nM.
The same measure for `CC(=O)c1nn(CC(=O)N2[C@H](C(=O)Nc3nc(Br)ccc3C)C[C@@]3(CN(C)C)C[C@@H]23)c2c(C)nc(-c3cnc(C)nc3)cc12`: under 1000 nM.
In the case of `CC(=O)c1nn(CC(=O)N2[C@H](C(=O)Nc3nc(Br)ccc3COCCF)C[C@@]3(C)C[C@@H]23)c2cnc(-c3cnc(C)nc3)cc12` it was under 1000 nM; in that of `CC(=O)c1nn(CC(=O)N2[C@H](C(=O)Nc3nc(Br)ccc3C)C[C@@]3(C)C[C@@H]23)c2cnc(-c3ccc(C)nc3F)cc12`, under 1000 nM; in that of `CC(=O)c1nn(CC(=O)N2[C@H](C(=O)NCc3cccnn3)C[C@@]3(C)C[C@@H]23)c2c(C)cc(-c3cnc(C)nc3)cc12`, under 1000 nM.
With `CC(=O)c1nn(CC(=O)N2[C@H](C(=O)Nc3nc(Br)ccc3C)C[C@@]3(CN4CCCC4)C[C@@H]23)c2c(C)nc(-c3cnc(C)nc3)cc12`, the IC50 is under 1000 nM.
As for `Cc1ncc(-c2ccc3c(c2)c(C(=O)NC(C)(C)C)nn3CC(=O)N2[C@H](C(=O)Nc3nc(Br)ccc3C)C[C@@]3(C)C[C@@H]23)cn1`, the IC50 is over 10000 nM.
The same measure for `CC(=O)c1nn(CC(=O)N2[C@H](C(=O)Nc3nc(Br)ccc3C)C[C@@]3(CF)C[C@@H]23)c2c(C)cc(-c3cnc(C)nc3)cc12`: under 1000 nM; for `CC(=O)c1nn(CC(=O)N2[C@H](C(=O)Nc3nc(Br)ccc3C)C[C@@]3(CC(O)CO)C[C@@H]23)c2cnc(-c3cnc(C)nc3)cc12` (stereo partly specified): under 1000 nM.
The same measure for `C=C[C@@]12C[C@@H](C(=O)Nc3nc(Br)ccc3Cc3nnc(CCCC)o3)N(C(=O)Cn3nc(C(C)=O)c4cc(-c5cnc(C)nc5)ncc43)[C@@H]1C2`: under 1000 nM; for `COC[C@@]12C[C@@H](C(=O)Nc3nc(Br)ccc3C)N(C(=O)Cn3nc(C(C)=O)c4cc(-c5cnc(C)nc5)ncc43)[C@@H]1C2`: under 1000 nM; for `CC(=O)c1nn(CC(=O)N2[C@H](C(=O)NCc3ccc(F)cc3)C[C@@]3(C)C[C@@H]23)c2c(C)cc(-c3cnc(C)nc3)cc12`: under 1000 nM.
In the case of `CC(=O)c1nn(CC(=O)N2[C@H](C(=O)Nc3nc(Br)ccc3C)C[C@@]3(CN4CC(C)(C)C4)C[C@@H]23)c2c(C)nc(-c3cnc(C)nc3)cc12` it was under 1000 nM.
On to `CC(=O)c1nn(CC(=O)N2[C@H](C(=O)Nc3nc(Br)ccc3CN3CCc4ccccc4C3)C[C@@]3(C)C[C@@H]23)c2cnc(-c3cnc(C)nc3)cc12`, for which the IC50 was under 1000 nM.
On to `CC(=O)c1nn(CC(=O)N2[C@H](C(=O)NCCN3CCCCC3)C[C@@]3(C)C[C@@H]23)c2c(C)cc(-c3cnc(C)nc3)cc12`, for which the IC50 is over 10000 nM.
In the case of `CCCCNC(=O)[C@@H]1C[C@@]2(C)C[C@H]2N1C(=O)Cn1nc(C(C)=O)c2cc(-c3cnc(C)nc3)cc(C)c21` it was under 1000 nM; in that of `CC(=O)c1nn(CC(=O)N2[C@H](C(=O)Nc3nc(Br)ccc3C)C[C@@]3(CNC(=O)C4CCCC4(F)F)C[C@@H]23)c2c(C)cc(-c3cnc(C)nc3)cc12` (stereo partly specified), under 1000 nM; in that of `CC(=O)c1nn(CC(=O)N2[C@H](C(=O)N[C@H](C)c3ccccc3)C[C@@]3(C)C[C@@H]23)c2c(C)cc(-c3cnc(C)nc3)cc12`, under 1000 nM.
In the case of `Cc1ncc(-c2ccc3c(c2)c(C(=O)NC(C)(C)C2CC2)nn3CC(=O)N2[C@H](C(=O)Nc3nc(Br)ccc3C)C[C@@]3(C)C[C@@H]23)cn1` it was over 10000 nM; in that of `CC(=O)c1nn(CC(=O)N2[C@H](C(=O)Nc3cc(F)cc(Br)n3)C[C@@]3(C)C[C@@H]23)c2c(C)nc(-c3cnc(C)nc3)cc12`, under 1000 nM; in that of `Cc1ncc(-c2ccc3c(c2)c(C(=O)NC(C)C2CC2)nn3CC(=O)N2[C@H](C(=O)Nc3nc(Br)ccc3C)C[C@@]3(C)C[C@@H]23)cn1` (stereo partly specified), under 1000 nM.
`CC(=O)c1nn(CC(=O)N2[C@H](C(=O)Nc3nc(Br)ccc3C)C[C@@]3(C)C[C@@H]23)c2ccc(-c3cnc(OC4CS(=O)(=O)C4)nc3)cc12`: the IC50 is under 1000 nM.
The same measure for `C=CCCS(=O)(=O)NC[C@@]12C[C@@H](C(=O)Nc3nc(Br)ccc3C=C)N(C(=O)Cn3nc(C(C)=O)c4cc(-c5cnc(C)nc5)ccc43)[C@@H]1C2`: under 1000 nM.
In the case of `COCc1ccc(Br)nc1NC(=O)[C@@H]1C[C@@]2(CN(C)C)C[C@H]2N1C(=O)Cn1nc(C(C)=O)c2cc(-c3cnc(C)nc3)ccc21` it was under 1000 nM.

Values taken from ChEMBL document CHEMBL5728630, “Aryl, heteroaryl, and heterocyclic pharmaceutical compounds for treatment of medical disorders” (2021).
